Data as given in patent US10874636B2, “Application of substituted cinnamamide derivatives in preparation of anti-anxiety medication” (TASLY PHARMACEUTICAL GROUP CO., LTD., priority 2016, dated 2020).

Assays:
mice = experiment: Elevated plus-maze test for mice; type: in vivo, ICR male mice; details: 10 mg/kg intragastric for 1 week; in words
Description: 247 ICR male mice aged 6-8 weeks with the weight of 18-22 g were taken and fed adaptively for 1 week. Then, these mice were evenly divided, at random, into 19 groups based on their weights. Intragastric administration was conducted once a day according to the drugs and dosages listed in Table 1, which lasted for 7 consecutive days. 20 minutes after administration on the 7th day, the elevated plus-maze test was conducted.
The elevated plus-maze (EPM) for mice were composed of two opposite open arms (50 cm×10 cm) and two opposite enclosed arms (50 cm×10 cm×40 cm), wherein upper portions of the enclosed arms were not capped, an open portion of 10 cm×10 cm was located in the middle of the maze, and the maze was 50 cm away from the ground. The test was conducted in a quite environment at a time period ranging from 13:00 to 18:00.
The open-arms entries (OE) and enclosed-arms entries, as well as the residence time in two arms, of the mice, within 5 minutes, were recorded respectively, and the percentage of the open-arms entries (OE %) and that of the open-arms time (OT %) for each group of mice with respect to the total entries into the two arms and the total residence time in the two arms therein were calculated respectively.
Analysis was conducted using SPSS 11.5 software, and data were represented by x±S, the significance of differences between groups was compared using the analysis of variance, differences were significant while P was less than 0.05.

rats = experiment: Drinking conflict experiment for rats (Vogel test); type: in vivo, SD male rats; details: for Effect on water licks of the rats during the punished session compared with the solvent control groups: 5 mg/kg intragastric for 10 days, in words; for Water licks of rats during punished session: 5 mg/kg intragastric once a day for 10 days, test half an hour after final administration, 3 minutes, 0.3 mA, x±S
Description: 230 SD male rats with the weight of 180-220 g were taken and fed adaptively for 1 week. Then, these rats were divided, at random, into 19 groups based on their weights, 12-13 rats in each group. Intragastric administration was conducted one a day according to the drugs and dosages listed in Table 2, which lasted for 10 consecutive days. Water deprivation 48 hours before the final administration, and non-punitive drinking training was conducted on the 9th day; on the 10th day, half an hour after the final intragastric administration of all the groups, the punitive experimental test was conducted.
On the first stage (non-punitive drinking training): after water deprivation for 24 hours, the rats were placed in operation boxes individually to explore thoroughly, until they found bottle mouths and began to lick water, water licks of the rats within 3 minutes under the conditions of no electric shock (the condition was set as follows: the strength of electric shock was 0 mA) were automatically recorded by counters, and rats whose water licks were less than 300 were eliminated. On the second stage (punitive experiment): the above rats which were not eliminated were placed in the operation boxes after continuing the water deprivation for 24 hours (48 hours in total). The rats could find the bottle mouths rapidly and begin to lick water, the instruments began to time automatically and imparted one electric shock (the ratio of licks to the number of electric shocks was 20:1) while the water licks reached to 20, wherein the strength of electric shocks was 0.3 mA, lasting for 2 seconds, but these rats may control the length of the time for which they were electrically shocked by keeping away from the bottle mouths. Water licks of the rats during the punished session (3 minutes) were recorded.
Observational indexes of the Vogel drinking conflict model: water licks of the rats during the punished session.

Compound	Effect on open-arms entries of the mice compared with the solvent control groups (mice)	Effect on open-arms time of the mice compared with the solvent control groups (mice)	Effect on water licks of the rats during the punished session compared with the solvent control groups (rats)	Water licks of rats during punished session (rats)
CC(C)CNC(=O)/C=C/c1cc(I)c2c(c1)OCO2 [II-3, 5′-iodine-3′,4′-methylenedioxy cinnamic acid isobutylamide]	increase the open-arms entries of the mice	prolong their open-arms time	increase water licks of the rats during the punished session	483.75 ± 59.05
CC(C)CNC(=O)/C=C/c1cc(Cl)c2c(c1)OCO2 [II-4, 5′-chlorine-3′,4′-methylenedioxy cinnamic acid isobutylamide]	increase the open-arms entries of the mice	prolong their open-arms time	increase water licks of the rats during the punished session	477.22 ± 66.66
CC(C)CNC(=O)/C=C/c1cc2c(c(C(F)(F)F)c1)OCO2 [II-5, 5′-trifluoromethyl-3′,4′-methylenedioxy cinnamic acid isobutylamide]	increase the open-arms entries of the mice	prolong their open-arms time	increase water licks of the rats during the punished session	469.11 ± 50.51
O=C(/C=C/c1cc2c(c(C(F)(F)F)c1)OCO2)N1CCCCC1 [II-10, 5′-trifluoromethyl-3′,4′-methylenedioxy cinnamic acid piperidinylamide]	increase the open-arms entries of the mice	prolong their open-arms time	increase water licks of the rats during the punished session	459.75 ± 59.23
CC(C)CNC(=O)CCc1cc2c(c(C(F)(F)F)c1)OCO2 [II-11, 3-(5′-trifluoromethyl-3′,4′-methylenedioxyphenyl)-propionic acid isobutylamide]	increase the open-arms entries of the mice	prolong their open-arms time	increase water licks of the rats during the punished session	426.25 ± 37.29
CC(C)CNC(=O)c1cc2c(c(C(F)(F)F)c1)OCO2 [II-12, 5-trifluoromethyl-3′,4′-methylenedioxy benzoic acid isobutylamide]	increase the open-arms entries of the mice	prolong their open-arms time	increase water licks of the rats during the punished session	402.67 ± 50.35
CN1CCN(C(=O)/C=C/CCc2cc3c(c(C(F)(F)F)c2)OCO3)CC1.Cl [II-13, (E)-N-(4-methylpiperazinyl)-5-(5′-trifluoromethyl-3′,4′-methylenedioxyphenyl)-1-pentene amide hydrochloride]	increase the open-arms entries of the mice	prolong their open-arms time	increase water licks of the rats during the punished session	393.44 ± 48.99
